Results from US20250228978A1, “ENGINEERING SUICIDE GENE APPROACHES TO IMPROVE CHEMOTHERAPEUTIC RESPONSE IN CANCER” (University of Virginia Patent Foundation, priority 0001, published 2025).

Columns and labels:
[1] = test system: cells expressing yCD-FIRE; assay: yCD-FIRE expression and 5-FC cell killing; format: cell-based
[2] = test system: U87 MG cells expressing AKT-gen2; assay: Effect of chemotherapy on AKT-gen2 SGT (FLAG) expression; format: cell-based; conditions: 48 hr; for FLAG expression of AKT-gen2 SGT vs control: carboplatin 200 μM or TMZ 300 μM, immunoblot
Experimental: U87 MG cells expressing AKT-gen2 were treated with carboplatin (200 μM), TMZ (300 μM), or DMSO, and lysed after 48 hours. Densitometry was used to quantify the GAPDH-normalized FLAG signal.
Cells were also treated with carboplatin (125 μM) or DMSO for 48 hours and immunofluorescence microscopy was performed using antibodies against the proteins as shown in FIG. 29B. The expression of each variant was quantified as the mean FLAG expression on a per-cell basis.
(§1) To determine if a CK2-regulated SGT would cooperate with chemotherapies used to treat glioblastoma, we measured the response of AKT-gen2 transductants to a combination of GCV with temozolomide (TMZ) or carboplatin. We hypothesized that a synergistic effect could occurs because CK2 contributes to DNA damage response and responds to stress signals; it seemed sensible that this could drive higher CK2 activity26,27,29.
[…]. We further examined the extent of carboplatin-mediated effects on CK2 expression increase through immunofluorescence microscopy (FIG. 29B). AKT-gen2 transductants were plated in 96-well glass-bottomed plates for imaging and treated with a reduced carboplatin concentration (125 μM) to promote the retention of adherent cells.
Because we observed increased CK2α and CK2α′ in carboplatin-treated cells (FIGS. 27A, 36A, and 36B), we next examined if the carboplatin-dependent increase in AKT-gen2 expression relies on CK2 expression. In U87 MG AKT-gen2 transductants expressing CK2 (α/α′ catalytic subunits) or control shRNA, CK2α knockdown abrogated the carboplatin-mediated increase in SGT expression (FIG. 29C).

[3] = test system: U87 MG AKTgen2 transductants; assay: Cell death by flow cytometry (TO-PRO-3), carboplatin pre-treatment followed by GCV; conditions: carboplatin 200 μM two days and/or GCV 50 μM three days
Experimental: Flow cytometry for cell death quantification. For cell death experiments, cells were plated in 6-well plates, and cell treatments were performed as described in figure legends. At the conclusion of experiments, floating and adherent cells were collected, resuspended in PBS containing TO-PRO-3 (Life Technologies, 1:10,000), and stored on ice until analysis. Within an hour of collection, cells were analyzed for TO-PRO-3 permeability with a FACSCalibur cytometer (BD Biosciences). Data collected from flow cytometry experiments was analyzed in R using the FlowCore, ggCyto, and OpenCyto packages.
Cells expressing AKT-gen2 were also pre-treated with DMSO or carboplatin (200 μM) for two days, followed by treatment with DMSO or GCV (50 μM) administration for three days. Cell death was then measured by flow cytometry through TOPRO staining.

CK2α and CK2α′ = assay: CK2 catalytic subunit expression after TMZ or carboplatin (immunofluorescence); format: cell-based; conditions: U87 MG cells, drug treated
Experimental: FIGS. 36A and 36B. Effect of TMZ or carboplatin on CK2 expression. U87 MG cells were subjected to immunofluorescence microscopy using antibodies against the two CK2 catalytic (FIG. 36A: CK2α, FIG. 36B: CK2α′) subunits. Image is representative of n=3 replicates and data are plotted as mean±sd. A Student's t test was applied to determine the significance of observed differences; *, **, and *** indicate p=0.05, 0.01, or 0.001, respectively.
as §1

[4] = test system: G816 cells (glioma-initiating cell line); assay: p38-regulated HSVtk constructs: FLAG abundance; format: cell-based, human; conditions: for FLAG expression of FLAG-NLS-HSVtk-MEF2A: two days, SB 203580 10 μM, trametinib 50 nM
Experimental: Referring to FIG. 18B, four designs tested included peptide sequences from the MAPK targets CHOP, MEF2A, p21, and FRA1. […] Sequences shown in blue were taken from proteins primarily phosphorylated by p38, while domains in gray were taken from the original FRA 1-PEST PEST design. The ERK recognition sequence was removed from these designs to improve specificity toward p38. G816 cells (glioma-initiating cell line) expressing each of the four HSVtk constructs were grown in 21% oxygen or 1% oxygen (hypoxia), with or without SB 203580 (p38 inhibitor, 10 μM for two days. Hypoxic induction of p38 phosphorylation promoted protein stabilization, which was abrogated with the addition of a p38 inhibitor to varying degrees for each construct.
Referring to FIG. 22A, G816-FLAG-NLS-HSVtk-MEF2A cells were treated with DMSO (vehicle), GCV (50 μM), or TMZ (500 μM) for up to 48 hours.
Referring to FIG. 22C, G816-FLAG-NLS-HSVtk-MEF2A cells were treated with DMSO (vehicle), SB 203580 (p38 inhibitor (p38i), 10 μM), or trametinib (MEK inhibitor (MEKi), 50 nM), in addition to TNFα, GCV, or TMZ for two days.

With `Nc1nc(=O)[nH]cc1F` [Variant 5-FC, 5-fluorocytosine] the “cell viability in response to 5-FC plus growth factors” value ([1]; cells expressing yCD-FIRE) was “decreases” and the “5-FC IC50” value ([1]; cells treated with growth factors vs not treated) was “lower”.
`N.N.O=C([O-])C1(C(=O)[O-])CCC1.[Pt+2]` [Carboplatin, carboplatin] was tested, and the “carboplatin-mediated increase in SGT expression” value ([2]; CK2α knockdown, carboplatin 200 μM) was “abrogated”, the “FLAG expression of AKT-gen2 SGT” value ([2]; carboplatin 125 μM, immunofluorescence) was “significant enhancement in FLAG expression” and the “FLAG expression of AKT-gen2 SGT vs control” value [2] was “significant increase in FLAG expression”. For the same molecule, the “carboplatin-mediated change in SGT accumulation” value ([2]; cells expressing CK2α′ shRNA, carboplatin 200 μM) was “small but insignificant increase”, the “carboplatin-mediated change in AKT-gen2 expression” value ([2]; cells expressing control shRNA, carboplatin 200 μM) was “significant increase” and the “reduction in cell viability” value [3] was roughly 15%. The “CK2α and CK2α′ expression” value (CK2α and CK2α′) was “stronger increase”.
For `Cn1nnc2c(C(N)=O)ncn2c1=O` [TMZ, temozolomide], the “FLAG expression of AKT-gen2 SGT vs control” value [2] was “no effect”.
With `CC(=O)Nc1cccc(-n2c(=O)n(C3CC3)c(=O)c3c(Nc4ccc(I)cc4F)n(C)c(=O)c(C)c32)c1` [trametinib, N-[3-[3-cyclopropyl-5-(2-fluoro-4-iodoanilino)-6,8-dimethyl-2,4,7-trioxopyrido[4,3-d]pyrimidin-1-yl]phenyl]acetamide] the “FLAG expression of FLAG-NLS-HSVtk-MEF2A” value [4] was “promoted PEST stabilization”.
For `Nc1nc(=O)c2ncn(COC(CO)CO)c2[nH]1` [GCV, ganciclovir], the “FLAG abundance of FLAG-NLS-HSVtk-MEF2A relative to vehicle” value ([4]; GCV 50 μM or TMZ 500 μM, 48 hours) was “increased FLAG abundance” and the “FLAG expression of FLAG-NLS-HSVtk-MEF2A” value [4] was “increased”.
With TNFα the “FLAG expression of FLAG-NLS-HSVtk-MEF2A” value [4] was “increased”.
With `C[S+]([O-])c1ccc(-c2nc(-c3ccncc3)c(-c3ccc(F)cc3)[nH]2)cc1` (stereo not drawn) [SB 203580] the “FLAG expression of FLAG-NLS-HSVtk-MEF2A” value [4] was “attenuated in some cases”.
